Data published in article PMC8155022 (Scientific Reports, 2021).
Read-outs that look alike come from different tables or passages of the source.

How the values were obtained:
[1] = target: hGABAAα1β2γ2-gated Cl− channel (Homo sapiens, UniProt P14867+P18507+P47870); experiment: follow-up functional study; assay type: cell-based; settings: read-out: IC50 in follow-up functional studies
5-HT3 (h) = target: T1, 5-HT3 (h) (Homo sapiens, UniProt P46098); experiment: Cerep panel; assay type: binding
T1 construct: purchased Cerep (receptors, ion channels, transporters); Eurofins Panlabs (kinases)
Procedure: (§2) A panel of 52 different receptors, ion channels and transporters was tested by Cerep, Inc. (Redmond, WA).

H1 (h) = target: T2, H1 (h) (Homo sapiens, UniProt P35367); experiment: Cerep panel; assay type: binding
T2 construct: purchased Cerep (receptors, ion channels, transporters); Eurofins Panlabs (kinases)
Procedure: as §2

AR = target: T3, AR (Homo sapiens, UniProt P10275); experiment: nuclear receptor cellular GAL4 reporter assay; assay type: cell-based; settings: agonist and antagonist mode; read-out: potency in agonist and antagonist mode
T3 construct: expressed in transfected cells

delta = delta (Homo sapiens, UniProt P41143); experiment: GPCR panel, cAMP or calcium FLIPR assays; assay type: cell-based
Procedure: (§3) 28 GPCRs were evaluated through cAMP or calcium FLIPR assays[67].

A3 (h) = target: T4, A3 (h) (Homo sapiens, UniProt P0DMS8); experiment: Cerep panel; assay type: binding
T4 construct: purchased Cerep (receptors, ion channels, transporters); Eurofins Panlabs (kinases)
T4 sequence (P0DMS8 1-318): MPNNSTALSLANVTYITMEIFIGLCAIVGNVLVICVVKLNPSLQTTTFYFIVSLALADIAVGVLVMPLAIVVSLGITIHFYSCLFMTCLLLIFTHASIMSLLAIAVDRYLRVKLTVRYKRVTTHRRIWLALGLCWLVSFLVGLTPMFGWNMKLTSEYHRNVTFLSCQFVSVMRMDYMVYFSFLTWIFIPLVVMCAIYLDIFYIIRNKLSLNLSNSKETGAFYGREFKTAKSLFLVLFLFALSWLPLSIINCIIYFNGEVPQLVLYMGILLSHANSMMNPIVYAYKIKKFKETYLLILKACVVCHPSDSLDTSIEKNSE
Procedure: (§4) 28 GPCRs were evaluated through cAMP or calcium FLIPR assays[67]. A panel of 52 different receptors, ion channels and transporters was tested by Cerep, Inc. (Redmond, WA). Kinase selectivity was conducted by Eurofins Panlabs Inc (St Charles, MO).

CLK2(h) = target: T5, CLK2(h) (Homo sapiens, UniProt P49760); experiment: Kinase panel; assay type: biochemical
T5 construct: purchased Cerep (receptors, ion channels, transporters); Eurofins Panlabs (kinases)
Procedure: (§5) Kinase selectivity was conducted by Eurofins Panlabs Inc (St Charles, MO).

MOP = MOP (Homo sapiens, UniProt P35372); experiment: GPCR panel, cAMP or calcium FLIPR assays; assay type: cell-based
Procedure: as §4

D2L = D2L (Homo sapiens, UniProt P14416); experiment: GPCR panel, cAMP or calcium FLIPR assays; assay type: cell-based
Procedure: as §3

KOP = KOP (Homo sapiens, UniProt P41145); experiment: GPCR panel, cAMP or calcium FLIPR assays; assay type: cell-based
Procedure: as §3

AT1 (h) = target: T6, AT1 (h) (Homo sapiens, UniProt P30556); experiment: Cerep panel; assay type: binding
T6 construct: purchased Cerep (receptors, ion channels, transporters); Eurofins Panlabs (kinases)
Procedure: as §2

CDK1/cyclinB(h) = target: T7, CDK1/cyclinB(h) (Homo sapiens, UniProt P06493); experiment: Kinase panel; assay type: biochemical
T7 construct: purchased Cerep (receptors, ion channels, transporters); Eurofins Panlabs (kinases)
Procedure: as §5

[2] = 1-month GLP toxicity study in rats; assay type: in vivo; settings: Sprague-Dawley, in vivo, rat; for AUC(0-t) / Cmax: po, 400 mg/kg/day; for AUC(0-t): read-out: AUC0-24 h at NOAEL; for Cmax: read-out: Cmax at NOAEL
Procedure: (§1) The type of study plan was reviewed and agreed by the Laboratory Animal Welfare Officer and the Animal Ethical Committee (officially known as Dierexperimentencommissie (DEC) Charles River Den Bosch), as required by the Dutch Act on Animal Experimentation (February 1997). Both rat and dog studies were performed in AALAC accredited Charles River Laboratories in the Netherlands. Studies in rats were conducted with 0, 25, 100, and 400 mg/kg per day (n = 10/sex/group) for 1 month. An additional 5 animals/sex in vehicle and high dose were allowed to continue for a 1-month treatment-free recovery period. Studies in dogs were conducted with 0, 3, 10, and 30 mg/kg per day (n = 4/sex/group) for 1 month. A treatment-free recovery period of 1 month (additional 2 dogs/sex/group) was included for both vehicle controls and high dose groups. […] Rats and dogs were examined for mortality, clinical signs, ophthalmoscopic changes, body weight, food consumption, hematology, clinical chemistry, anatomic pathology, and toxicokinetics. In addition, dogs were examined for electrocardiographic changes. Rats and dogs were also assessed for reversal of any effects following a 1-month recovery period. These studies were conducted in compliance with good laboratory practice (GLP) regulations.

Sprague–Dawley rats = experiment: 1-month GLP toxicity study in rats; assay type: in vivo; settings: rat; recovered after 1-month recovery period
Procedure: as §1

GSK3α(h) = target: T8, GSK3α(h) (Homo sapiens, UniProt P49840); experiment: Kinase panel; assay type: biochemical
T8 construct: purchased Cerep (receptors, ion channels, transporters); Eurofins Panlabs (kinases)
Procedure: as §5

A2A = A2A (Homo sapiens, UniProt P29274); experiment: GPCR panel, cAMP or calcium FLIPR assays; assay type: cell-based
Procedure: as §3

CHK2(h) = target: T9, CHK2(h) (Homo sapiens, UniProt O96017); experiment: Kinase panel; assay type: biochemical
T9 construct: purchased Cerep (receptors, ion channels, transporters); Eurofins Panlabs (kinases)
Procedure: as §5

D2S (h) = target: T10, D2S (h) (Homo sapiens, UniProt P14416); experiment: Cerep panel; assay type: binding
T10 construct: purchased Cerep (receptors, ion channels, transporters); Eurofins Panlabs (kinases)
Procedure: as §2

H2 (h) = target: T11, H2 (h) (Homo sapiens, UniProt P25021); experiment: Cerep panel; assay type: binding
T11 construct: purchased Cerep (receptors, ion channels, transporters); Eurofins Panlabs (kinases)
Procedure: as §2

[3] = tested on: ex vivo stimulated IL-17A production in the blood; experiment: mouse PK/PD model, ex vivo stimulated IL-17A production; settings: 100 mg/kg oral; for inhibition at 100 mg/kg: 5-fold diluted blood
Source text: Compound concentrations are also listed as undiluted (measured) and diluted (extrapolated) in Supplementary Table S2.

LXRβ = target: T12, LXRβ (Homo sapiens, UniProt P55055); experiment: nuclear receptor cellular GAL4 reporter assay; assay type: cell-based; settings: agonist and antagonist mode; read-out: potency in agonist and antagonist mode
T12 construct: expressed in transfected cells

5-HT2A (h) = target: T13, 5-HT2A (h) (Homo sapiens, UniProt P28223); experiment: Cerep panel; assay type: binding
T13 construct: purchased Cerep (receptors, ion channels, transporters); Eurofins Panlabs (kinases)
Procedure: as §2

ETA = ETA (Homo sapiens, UniProt P25101); experiment: GPCR panel, cAMP or calcium FLIPR assays; assay type: cell-based
Procedure: as §3

rabbit fetal development = experiment: rabbit embryo-fetal study; assay type: in vivo
Procedure: Therefore, SAD was dosed only up to 200 mg.

T10 sequence (P14416 1-414 isoform P14416-2): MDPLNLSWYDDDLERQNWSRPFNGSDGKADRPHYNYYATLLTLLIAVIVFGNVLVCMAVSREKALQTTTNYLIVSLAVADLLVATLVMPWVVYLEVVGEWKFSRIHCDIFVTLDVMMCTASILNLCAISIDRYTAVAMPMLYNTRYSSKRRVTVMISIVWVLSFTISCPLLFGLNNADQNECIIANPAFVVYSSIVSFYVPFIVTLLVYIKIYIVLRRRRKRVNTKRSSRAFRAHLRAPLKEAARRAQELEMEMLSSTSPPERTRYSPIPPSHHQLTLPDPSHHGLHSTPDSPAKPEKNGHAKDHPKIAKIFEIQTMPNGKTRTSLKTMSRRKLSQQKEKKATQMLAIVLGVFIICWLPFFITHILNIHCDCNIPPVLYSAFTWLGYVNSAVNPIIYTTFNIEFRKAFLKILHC
T7 sequence (P06493 whole entry): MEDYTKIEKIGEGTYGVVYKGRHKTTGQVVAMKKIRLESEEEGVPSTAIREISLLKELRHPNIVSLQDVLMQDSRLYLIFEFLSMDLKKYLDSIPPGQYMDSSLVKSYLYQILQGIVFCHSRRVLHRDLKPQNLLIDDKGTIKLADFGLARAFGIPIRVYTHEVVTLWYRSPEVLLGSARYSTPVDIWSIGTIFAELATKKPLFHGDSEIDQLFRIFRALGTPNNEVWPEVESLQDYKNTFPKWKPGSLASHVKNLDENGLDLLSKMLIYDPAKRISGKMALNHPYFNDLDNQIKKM
T7 sequence (P14635 whole entry partner): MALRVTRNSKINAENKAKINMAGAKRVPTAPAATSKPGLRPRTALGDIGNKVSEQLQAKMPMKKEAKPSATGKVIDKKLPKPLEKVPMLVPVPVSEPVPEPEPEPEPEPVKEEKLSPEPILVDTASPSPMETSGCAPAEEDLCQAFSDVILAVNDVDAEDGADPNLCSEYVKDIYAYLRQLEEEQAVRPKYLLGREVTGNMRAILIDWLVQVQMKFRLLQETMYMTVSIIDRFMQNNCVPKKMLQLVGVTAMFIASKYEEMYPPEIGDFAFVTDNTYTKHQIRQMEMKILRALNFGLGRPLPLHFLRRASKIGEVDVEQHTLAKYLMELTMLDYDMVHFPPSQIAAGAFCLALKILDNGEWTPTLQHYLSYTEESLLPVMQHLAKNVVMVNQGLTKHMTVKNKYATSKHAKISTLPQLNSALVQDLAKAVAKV
T2 sequence (P35367 whole entry): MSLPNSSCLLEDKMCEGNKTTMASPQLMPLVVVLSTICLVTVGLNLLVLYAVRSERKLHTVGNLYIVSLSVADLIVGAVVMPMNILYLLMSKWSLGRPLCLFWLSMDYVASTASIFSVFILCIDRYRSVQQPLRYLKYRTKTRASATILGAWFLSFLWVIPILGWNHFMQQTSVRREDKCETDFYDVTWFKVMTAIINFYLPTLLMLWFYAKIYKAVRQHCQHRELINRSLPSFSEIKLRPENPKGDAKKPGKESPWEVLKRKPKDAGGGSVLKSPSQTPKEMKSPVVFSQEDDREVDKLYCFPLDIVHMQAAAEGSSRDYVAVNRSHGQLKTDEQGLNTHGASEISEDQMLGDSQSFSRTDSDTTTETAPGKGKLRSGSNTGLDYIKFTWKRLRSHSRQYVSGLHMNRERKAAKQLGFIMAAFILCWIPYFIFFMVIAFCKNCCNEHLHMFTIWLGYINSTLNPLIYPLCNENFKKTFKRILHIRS
T1 sequence (P46098 24-478): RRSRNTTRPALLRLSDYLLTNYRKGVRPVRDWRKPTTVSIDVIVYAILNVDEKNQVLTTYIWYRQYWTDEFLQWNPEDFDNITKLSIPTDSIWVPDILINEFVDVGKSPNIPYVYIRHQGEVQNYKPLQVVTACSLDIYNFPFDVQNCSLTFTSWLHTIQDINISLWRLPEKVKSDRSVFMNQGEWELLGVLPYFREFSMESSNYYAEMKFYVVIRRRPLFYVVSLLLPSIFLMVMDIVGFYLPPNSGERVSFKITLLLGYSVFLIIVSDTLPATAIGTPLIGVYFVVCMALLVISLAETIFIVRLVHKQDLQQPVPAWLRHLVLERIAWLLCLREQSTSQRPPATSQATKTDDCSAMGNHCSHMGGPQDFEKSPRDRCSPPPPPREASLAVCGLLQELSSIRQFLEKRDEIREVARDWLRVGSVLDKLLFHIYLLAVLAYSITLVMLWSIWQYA
T8 sequence (P49840 whole entry): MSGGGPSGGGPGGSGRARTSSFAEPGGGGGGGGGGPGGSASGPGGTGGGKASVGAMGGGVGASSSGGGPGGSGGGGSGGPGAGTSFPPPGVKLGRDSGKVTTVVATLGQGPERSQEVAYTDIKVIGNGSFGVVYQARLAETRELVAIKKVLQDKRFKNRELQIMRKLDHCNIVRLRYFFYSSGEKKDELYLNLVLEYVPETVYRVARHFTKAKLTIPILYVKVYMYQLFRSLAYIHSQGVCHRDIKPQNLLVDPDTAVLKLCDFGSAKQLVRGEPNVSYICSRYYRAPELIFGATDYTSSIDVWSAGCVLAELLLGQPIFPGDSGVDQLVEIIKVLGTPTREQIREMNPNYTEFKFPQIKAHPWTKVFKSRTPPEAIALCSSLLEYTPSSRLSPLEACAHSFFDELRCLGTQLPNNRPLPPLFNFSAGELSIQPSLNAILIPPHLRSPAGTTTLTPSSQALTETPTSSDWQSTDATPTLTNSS
Chain of delta (P41143 whole entry): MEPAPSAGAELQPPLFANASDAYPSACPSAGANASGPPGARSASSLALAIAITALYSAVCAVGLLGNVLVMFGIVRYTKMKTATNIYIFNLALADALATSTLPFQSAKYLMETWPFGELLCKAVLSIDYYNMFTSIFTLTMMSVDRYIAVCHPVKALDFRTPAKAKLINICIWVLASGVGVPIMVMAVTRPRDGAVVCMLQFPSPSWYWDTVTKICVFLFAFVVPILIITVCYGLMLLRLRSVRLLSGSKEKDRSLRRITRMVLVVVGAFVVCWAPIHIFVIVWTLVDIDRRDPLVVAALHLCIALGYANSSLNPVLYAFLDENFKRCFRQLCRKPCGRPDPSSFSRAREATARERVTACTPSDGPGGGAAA
T6 sequence (P30556 whole entry): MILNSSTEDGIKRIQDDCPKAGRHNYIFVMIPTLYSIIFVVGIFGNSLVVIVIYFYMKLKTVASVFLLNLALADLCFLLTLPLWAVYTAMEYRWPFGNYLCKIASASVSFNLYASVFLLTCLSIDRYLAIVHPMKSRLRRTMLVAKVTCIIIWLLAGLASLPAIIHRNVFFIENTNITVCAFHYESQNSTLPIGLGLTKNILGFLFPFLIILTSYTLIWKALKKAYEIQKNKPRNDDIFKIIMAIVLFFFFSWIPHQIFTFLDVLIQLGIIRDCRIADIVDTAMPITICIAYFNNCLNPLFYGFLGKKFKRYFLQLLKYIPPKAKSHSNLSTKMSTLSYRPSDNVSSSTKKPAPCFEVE
Chain of D2L (P14416 whole entry): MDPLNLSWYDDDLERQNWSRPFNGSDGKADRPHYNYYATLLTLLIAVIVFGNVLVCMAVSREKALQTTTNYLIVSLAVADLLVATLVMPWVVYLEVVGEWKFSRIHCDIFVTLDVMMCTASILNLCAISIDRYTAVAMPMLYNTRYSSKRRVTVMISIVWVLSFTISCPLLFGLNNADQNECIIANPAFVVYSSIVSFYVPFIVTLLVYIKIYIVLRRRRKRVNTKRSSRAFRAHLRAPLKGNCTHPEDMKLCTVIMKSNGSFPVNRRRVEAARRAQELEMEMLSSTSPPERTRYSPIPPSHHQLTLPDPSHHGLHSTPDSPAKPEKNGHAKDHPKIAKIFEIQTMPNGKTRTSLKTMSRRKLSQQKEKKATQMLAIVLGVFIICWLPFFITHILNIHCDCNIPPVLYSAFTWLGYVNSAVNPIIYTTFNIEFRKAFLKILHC
Chain of A2A (P29274 whole entry): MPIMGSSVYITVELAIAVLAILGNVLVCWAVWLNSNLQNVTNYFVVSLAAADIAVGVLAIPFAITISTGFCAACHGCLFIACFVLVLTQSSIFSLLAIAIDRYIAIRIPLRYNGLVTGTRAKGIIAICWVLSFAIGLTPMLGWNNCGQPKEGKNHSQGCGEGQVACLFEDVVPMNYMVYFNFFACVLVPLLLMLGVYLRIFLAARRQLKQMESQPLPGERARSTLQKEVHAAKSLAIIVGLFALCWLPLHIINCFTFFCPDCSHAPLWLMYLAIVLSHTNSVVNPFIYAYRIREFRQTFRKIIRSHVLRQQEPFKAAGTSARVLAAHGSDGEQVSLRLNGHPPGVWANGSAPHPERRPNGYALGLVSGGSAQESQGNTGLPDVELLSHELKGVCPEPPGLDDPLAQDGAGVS
Chain of MOP (P35372 whole entry): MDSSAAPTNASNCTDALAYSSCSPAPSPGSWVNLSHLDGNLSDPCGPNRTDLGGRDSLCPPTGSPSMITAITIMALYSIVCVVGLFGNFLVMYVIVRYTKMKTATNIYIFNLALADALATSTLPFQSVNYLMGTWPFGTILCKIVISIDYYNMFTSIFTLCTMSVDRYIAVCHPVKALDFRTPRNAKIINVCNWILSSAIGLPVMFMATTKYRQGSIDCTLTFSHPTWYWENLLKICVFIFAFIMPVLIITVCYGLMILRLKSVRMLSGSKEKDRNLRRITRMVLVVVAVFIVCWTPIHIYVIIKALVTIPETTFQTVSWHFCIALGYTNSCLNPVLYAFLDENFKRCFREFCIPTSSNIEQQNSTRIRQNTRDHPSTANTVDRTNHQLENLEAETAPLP
Chain of KOP (P41145 whole entry): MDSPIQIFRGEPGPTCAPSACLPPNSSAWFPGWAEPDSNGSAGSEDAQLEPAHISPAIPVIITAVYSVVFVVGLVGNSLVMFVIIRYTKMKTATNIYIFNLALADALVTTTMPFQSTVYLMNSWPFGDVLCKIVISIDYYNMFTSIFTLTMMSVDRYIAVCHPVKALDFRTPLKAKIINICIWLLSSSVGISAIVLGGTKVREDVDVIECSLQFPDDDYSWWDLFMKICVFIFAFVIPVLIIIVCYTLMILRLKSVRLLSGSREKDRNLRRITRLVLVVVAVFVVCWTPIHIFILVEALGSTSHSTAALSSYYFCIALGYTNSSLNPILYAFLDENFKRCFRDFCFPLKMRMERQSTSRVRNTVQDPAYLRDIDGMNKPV

SMILES: CC1CCCN1C(=O)c1nc(C(=O)NCC(C)(C)O)sc1-c1ccc(C(O)(C(F)(F)F)C(F)(F)F)c(Cl)c1Cl (stereo not shown) [JNJ-61803534]
- IC50 [1]: > 30 µM
- inhibition at 1 µM (5-HT3 (h)): < 10%
- inhibition at 10 µM (5-HT3 (h)): < 10%
- inhibition at 1 µM (H1 (h)): < 10%
- inhibition at 10 µM (H1 (h)): < 10%
- IC50 (AR): > 1.5 µM
- EC50 (delta; agonist): > 12.5 µM
- IC50 (delta; antagonist): > 12.5 µM
- inhibition at 1 µM (A3 (h); 1 µM): < 10%
- % Inhibition at 10 µM (A3 (h); 10 µM): 45.2%
- inhibition at 10 µM (A3 (h); 10 µM): > 50%
- activity at 1 µM (CLK2(h)): 108%
- activity at 10 µM (CLK2(h)): 99%
- EC50 (MOP; agonist): > 12.5 µM
- IC50 (MOP; antagonist): > 12.5 µM
- EC50 (D2L; agonist): > 12.5 µM
- IC50 (D2L; antagonist): > 12.5 µM
- EC50 (KOP; agonist): > 12.5 µM
- IC50 (KOP; antagonist): > 12.5 µM
- inhibition at 1 µM (AT1 (h)): < 10%
- inhibition at 10 µM (AT1 (h)): < 10%
- activity at 1 µM (CDK1/cyclinB(h)): 96%
- activity at 10 µM (CDK1/cyclinB(h)): 108%
- AUC(0-t) ([2]; female): 376 µg·h/mL
- Cmax ([2]; female): 24200 ng/mL
- AUC(0-t) ([2]; male): 310 µg·h/mL
- Cmax ([2]; male): 29600 ng/mL
- NOAEL at 1 month ([2]; both sexes, 1 month oral, highest dose tested, read-out: no-observed-adverse-effect level (NOAEL)): 400 mg/kg/day
- lymphocyte apoptosis in thymus (Sprague–Dawley rats): dose-dependent lymphocyte apoptosis in thymus was observed
- activity at 1 µM (GSK3α(h)): 93%
- activity at 10 µM (GSK3α(h)): 104%
- EC50 (A2A; agonist): > 12.5 µM
- IC50 (A2A; antagonist): > 12.5 µM
- activity at 1 µM (CHK2(h)): 107%
- activity at 10 µM (CHK2(h)): 111%
- inhibition at 1 µM (D2S (h)): < 10%
- inhibition at 10 µM (D2S (h)): < 10%
- inhibition at 1 µM (H2 (h)): < 10%
- inhibition at 10 µM (H2 (h)): 16.6%
- inhibition at 100 mg/kg ([3]; 1 h post-dose): 86 ± 6.7%
- inhibition at 100 mg/kg ([3]; 2 h post-dose): 89 ± 7.1%
- inhibition at 100 mg/kg ([3]; 4 h post-dose): 72 ± 14%
- inhibition at 100 mg/kg ([3]; 7 h post-dose): 75 ± 7.5%
- inhibition at 100 mg/kg ([3]; 12 h post-dose): 62 ± 17%
- inhibition at 100 mg/kg ([3]; 18 h post-dose, without statistical significance): 30 ± 60%
- EC50 at 100 mg/kg ([3]; concentration in 5-fold diluted plasma, read-out: compound concentration for 50% inhibition of ex vivo IL-17A): 0.24 to 0.86 µM
- IC50 (LXRβ): > 1.5 µM
- inhibition at 1 µM (5-HT2A (h)): < 10%
- inhibition at 10 µM (5-HT2A (h)): < 10%
- EC50 (ETA; agonist): > 10 µM
- IC50 (ETA; antagonist): > 10 µM
- effect on fetal development (rabbit fetal development): fetal development was impacted
